Our source for the IC50 and logt1/2 values is ChEMBL document CHEMBL1138582, “5-Aminopyrimidin-2-ylnitriles as cathepsin K inhibitors” (Bioorg Med Chem Lett, 2009).

What is called IC50 is the concentration that gives 50% inhibition.

For one series, the target named is T1, Cathepsin K (Homo sapiens, UniProt P43235).
T1 sequence (P43235 whole entry): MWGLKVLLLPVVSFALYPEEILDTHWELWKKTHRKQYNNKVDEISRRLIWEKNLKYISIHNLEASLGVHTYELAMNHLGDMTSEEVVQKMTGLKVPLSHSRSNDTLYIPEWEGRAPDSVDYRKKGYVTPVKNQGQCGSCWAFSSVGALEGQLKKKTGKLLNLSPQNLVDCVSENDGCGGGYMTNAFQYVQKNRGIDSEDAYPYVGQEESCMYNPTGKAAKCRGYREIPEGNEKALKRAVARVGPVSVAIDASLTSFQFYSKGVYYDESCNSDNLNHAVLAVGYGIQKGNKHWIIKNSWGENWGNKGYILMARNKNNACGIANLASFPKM
The series is described as follows: Inhibition of cathepsin K.

Series [1] in a line: Electrophilicity, glutathione reactivity assessed as half life. The format is physicochemical. Details: unit not given here.
A further series deals with Procathepsin L (Homo sapiens, UniProt P07711). The series is described as follows: Inhibition of cathepsin L.
A further series concerns the target Cathepsin S (Homo sapiens, UniProt P25774). The series is described as follows: Inhibition of cathepsin S.
A further series deals with Cathepsin B (Homo sapiens, UniProt P07858). The series is described as follows: Inhibition of cathepsin B.

Procathepsin L, sequence (P07711 whole entry): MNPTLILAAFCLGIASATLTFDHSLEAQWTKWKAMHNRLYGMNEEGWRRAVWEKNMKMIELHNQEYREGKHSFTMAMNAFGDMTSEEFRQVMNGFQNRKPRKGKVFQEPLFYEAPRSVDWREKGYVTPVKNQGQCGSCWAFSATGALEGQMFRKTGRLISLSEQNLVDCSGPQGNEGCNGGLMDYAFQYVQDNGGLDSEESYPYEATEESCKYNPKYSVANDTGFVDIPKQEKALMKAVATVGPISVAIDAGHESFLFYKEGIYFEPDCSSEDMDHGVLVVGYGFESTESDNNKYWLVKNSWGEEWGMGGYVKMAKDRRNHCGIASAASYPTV
Cathepsin S, sequence (P25774 whole entry): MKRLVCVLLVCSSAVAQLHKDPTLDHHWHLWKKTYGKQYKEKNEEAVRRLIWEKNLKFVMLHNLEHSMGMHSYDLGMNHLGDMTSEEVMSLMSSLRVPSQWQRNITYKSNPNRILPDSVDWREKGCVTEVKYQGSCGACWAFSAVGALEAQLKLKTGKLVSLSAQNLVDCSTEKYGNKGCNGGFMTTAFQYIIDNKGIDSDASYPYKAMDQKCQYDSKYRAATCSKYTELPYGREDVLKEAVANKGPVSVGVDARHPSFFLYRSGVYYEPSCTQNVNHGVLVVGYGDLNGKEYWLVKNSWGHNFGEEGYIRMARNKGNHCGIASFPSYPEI

`CC(C)CNc1nc(C#N)nc(NC2CCS(=O)(=O)C2)c1N` (configuration not stated) displayed an IC50 on Cathepsin K of 14 nM.

On to `CNc1nc(C#N)nc(N(C)C)c1[N+](=O)[O-]`, for which the logt1/2 in series [1] was below 2.08.

Regarding `CCC(C)Nc1nc(C#N)nc(N2CCOCC2)c1N` (configuration not stated), 300 nM corresponded to half-maximal inhibition on Cathepsin K (IC50).

For `CNc1c(Nc2ccccc2)nc(C#N)nc1N(C)C`, the logt1/2 in series [1] came to 2.91.

Take `CC(C)CNc1nc(C#N)nc(N2CC(O)C2)c1N`: the IC50 against Cathepsin K worked out at 32 nM.

As for `CC(C)CNc1nc(C#N)nc(N2CCOCC2)c1N`, the IC50 against Procathepsin L was 2000 nM; on Cathepsin K, 18 nM; against Cathepsin S, 560 nM.

As for `N#Cc1nc(NC2CCCC2)c(N)c(N2CCOCC2)n1`, the midpoint of inhibition on Cathepsin K, the IC50, lay at 13 nM.

At Cathepsin K, `N#Cc1nc(NC2CCOC2)c(N)c(N2CCOCC2)n1` (configuration not stated) came in with an IC50 of 340 nM.

On Cathepsin K, `CC(C)CNc1nc(C#N)nc(NCc2nnn[nH]2)c1N` displayed an IC50 of 62 nM.

Consider `CNc1nc(C#N)nc(N(C)C)c1Br`, for which, in series [1], the logt1/2 turned out to be 2.19.

In the case of `CN(C)c1nc(C#N)nc(Nc2ccccc2)n1`, in series [1], the logt1/2 is 2.07.

Consider `CN(C)c1nc(C#N)nc(N(C)C)c1N`, for which, in series [1], the logt1/2 is 3.26.

At Cathepsin K, `COCCNc1nc(C#N)nc(NCC(C)C)c1N` displayed a concentration for half-maximal inhibition (IC50) of 24 nM.

As to `COc1c(Nc2ccccc2)nc(C#N)nc1N(C)C`, the logt1/2 in series [1] was 2.31.

Take `CN(C)c1cc(Nc2ccccc2)nc(C#N)n1`: the logt1/2 in series [1] is recorded as 2.12.

With `CN(C)c1nc(C#N)nc(Nc2ccccc2)c1N`, in series [1], the logt1/2 turned out to be 3.

Turning to `CN(C)c1cc(N(C)C)nc(C#N)n1`, the logt1/2 in series [1] is given as 2.56.

On to `N#Cc1nc(N2CCCCC2)c(N)c(N2CCOCC2)n1`, for which, at Cathepsin K, half-maximal inhibition (IC50) was put at 22 nM.

Turning to `CC(C)Nc1nc(C#N)nc(N2CCOCC2)c1N`, at Cathepsin K, the midpoint of inhibition, the IC50, lay at 560 nM.

Molecule `N#Cc1nc(NC2CC3CCC2C3)c(N)c(N2CCOCC2)n1` (configuration not stated) returned an IC50 at Cathepsin K of 2 nM.

As for `N#Cc1nc(Nc2ccccc2)c(N)c(N2CCOCC2)n1`, at Cathepsin K, the half-maximal inhibitory concentration (IC50) turned out to be 110 nM.

As to `N#Cc1nc(N2CCCC2)c(N)c(N2CCOCC2)n1`, the IC50 on Cathepsin K stood at 60 nM.

As for `CNc1nc(C#N)nc(N(C)C)c1N`, the logt1/2 in series [1] is reported as 3.38.

On to `CC(C)CNc1nc(C#N)nc(N2CCNCC2)c1N`, for which the IC50 on Cathepsin B worked out at 6.1 µM; against Procathepsin L it was 1400 nM; against Cathepsin K, 6 nM; against Cathepsin S, 890 nM.

At Cathepsin K, `CC(=O)N1CCN(c2nc(C#N)nc(NCC(C)C)c2N)CC1` had an IC50 of 9 nM.

For `CN(C)c1nc(C#N)nc(Oc2ccccc2)c1N`, the logt1/2 in series [1] amounted to 2.98.

Regarding `N#Cc1nc(NC2CCCCC2)c(N)c(N2CCOCC2)n1`, the half-maximal inhibitory concentration (IC50) against Cathepsin K amounted to 23 nM.

Consider `CC(C)(C)CNc1nc(C#N)nc(N2CCOCC2)c1N`, for which the IC50 is above 10 µM against Cathepsin B, above 10000 nM against Procathepsin L, 17 nM at Cathepsin K and 910 nM on Cathepsin S.

As to `CNc1cc(N(C)C)nc(C#N)n1`, in series [1], the logt1/2 worked out at 2.67.
